Among the data in ChEMBL document CHEMBL3792323, “Piperidine derivatives as nonprostanoid IP receptor agonists” (Bioorg Med Chem Lett, 2016) are bioavailability, Cmax and Ki values, retold here.

The term bioavailability denotes dose-corrected exposure relative to a reference, in per cent. For orientation: Cmax means the highest concentration seen after dosing. What is called Ki is the equilibrium dissociation constant of an inhibitor or competing ligand from its target.

Series [1] in a line: Oral bioavailability in fasted dog at 2.5 mg/kg. Type of series: ADME, organism-based, Canis lupus familiaris. As to conditions: in vivo.
Series [2] can be described thus: Cmax in fasted dog at 2.5 mg/kg, po. On the set-up: dose 2.5 mg/kg, route oral. Conditions: in vivo. Type of series: ADME, organism-based, Canis lupus familiaris.
In series [3] the target is T1, Prostaglandin E2 receptor EP3 subtype (Homo sapiens, UniProt P43115).
T1 sequence (P43115 whole entry): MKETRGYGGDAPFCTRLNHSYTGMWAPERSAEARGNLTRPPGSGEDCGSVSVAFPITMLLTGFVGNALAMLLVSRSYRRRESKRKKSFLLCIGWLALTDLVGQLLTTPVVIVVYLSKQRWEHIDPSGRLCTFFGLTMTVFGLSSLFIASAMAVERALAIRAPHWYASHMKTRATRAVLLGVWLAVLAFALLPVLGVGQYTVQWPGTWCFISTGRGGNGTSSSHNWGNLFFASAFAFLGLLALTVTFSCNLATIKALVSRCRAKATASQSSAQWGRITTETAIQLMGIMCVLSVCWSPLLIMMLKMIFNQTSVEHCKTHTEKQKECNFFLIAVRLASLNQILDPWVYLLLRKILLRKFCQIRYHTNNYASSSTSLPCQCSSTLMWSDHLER
Nature of the series: Binding affinity to human EP3 receptor by competitive binding assay.

Series [4] deals with T2, Prostaglandin E2 receptor EP1 subtype (Homo sapiens, UniProt P34995).
T2 sequence (P34995 whole entry): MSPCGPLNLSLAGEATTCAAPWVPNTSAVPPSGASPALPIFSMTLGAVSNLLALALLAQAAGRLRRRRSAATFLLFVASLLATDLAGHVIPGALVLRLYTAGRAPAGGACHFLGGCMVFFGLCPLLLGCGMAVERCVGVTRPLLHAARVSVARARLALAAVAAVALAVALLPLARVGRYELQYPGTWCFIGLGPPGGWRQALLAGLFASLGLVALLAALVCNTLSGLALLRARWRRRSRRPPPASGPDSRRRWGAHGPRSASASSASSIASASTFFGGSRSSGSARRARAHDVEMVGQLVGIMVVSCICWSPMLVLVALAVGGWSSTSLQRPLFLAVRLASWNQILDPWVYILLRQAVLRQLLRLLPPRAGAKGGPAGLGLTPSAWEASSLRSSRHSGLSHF
Kind of series: Binding affinity to human EP1 receptor by competitive binding assay.

The target in the next series is T3, Thromboxane A2 receptor (Homo sapiens, UniProt P21731).
T3 sequence (P21731 whole entry): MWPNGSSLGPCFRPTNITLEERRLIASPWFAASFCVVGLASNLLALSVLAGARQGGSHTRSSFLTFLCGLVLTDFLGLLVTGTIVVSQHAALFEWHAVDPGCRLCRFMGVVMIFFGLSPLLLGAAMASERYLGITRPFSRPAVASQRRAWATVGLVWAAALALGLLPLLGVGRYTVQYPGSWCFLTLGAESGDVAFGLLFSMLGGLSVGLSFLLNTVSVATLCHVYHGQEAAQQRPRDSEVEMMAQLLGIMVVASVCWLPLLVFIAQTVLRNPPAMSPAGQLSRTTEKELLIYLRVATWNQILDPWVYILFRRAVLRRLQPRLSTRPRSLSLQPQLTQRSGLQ
Kind of series: Binding affinity to human TP receptor by competitive binding assay.

Series [5] addresses Prostaglandin F2-alpha receptor (Homo sapiens, UniProt P43088). Nature of the series: Binding affinity to human FP receptor by competitive binding assay.
Series [6] addresses Prostaglandin E2 receptor EP2 subtype (Homo sapiens, UniProt P43116). Kind of series: Binding affinity to human EP2 receptor by competitive binding assay.
A further series addresses Prostacyclin receptor (Homo sapiens, UniProt P43119). Nature of the series: Binding affinity to human IP receptor by competitive binding assay.
Series [7] concerns the target Prostaglandin E2 receptor EP4 subtype (Homo sapiens, UniProt P35408). Nature of the series: Binding affinity to human EP4 receptor by competitive binding assay.

Chain of Prostacyclin receptor (P43119 whole entry): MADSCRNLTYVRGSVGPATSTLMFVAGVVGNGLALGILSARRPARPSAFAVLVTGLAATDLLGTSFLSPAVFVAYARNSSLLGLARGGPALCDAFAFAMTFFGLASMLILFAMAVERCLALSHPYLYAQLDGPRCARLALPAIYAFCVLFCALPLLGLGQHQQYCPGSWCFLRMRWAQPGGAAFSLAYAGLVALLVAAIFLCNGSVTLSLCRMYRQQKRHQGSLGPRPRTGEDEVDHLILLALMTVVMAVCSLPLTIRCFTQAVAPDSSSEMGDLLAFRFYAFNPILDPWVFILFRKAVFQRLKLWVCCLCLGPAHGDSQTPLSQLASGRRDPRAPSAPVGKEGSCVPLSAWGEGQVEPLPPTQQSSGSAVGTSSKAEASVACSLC
Chain of Prostaglandin E2 receptor EP2 subtype (P43116 whole entry): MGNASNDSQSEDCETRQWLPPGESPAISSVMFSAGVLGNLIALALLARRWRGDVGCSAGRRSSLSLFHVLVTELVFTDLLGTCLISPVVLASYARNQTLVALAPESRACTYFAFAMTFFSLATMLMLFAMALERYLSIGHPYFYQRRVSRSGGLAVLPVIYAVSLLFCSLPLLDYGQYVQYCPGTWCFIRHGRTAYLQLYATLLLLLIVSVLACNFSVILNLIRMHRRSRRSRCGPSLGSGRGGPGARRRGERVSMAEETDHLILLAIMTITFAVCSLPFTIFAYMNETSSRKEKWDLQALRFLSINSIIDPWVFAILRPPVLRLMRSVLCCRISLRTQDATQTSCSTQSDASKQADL
Chain of Prostaglandin E2 receptor EP4 subtype (P35408 whole entry): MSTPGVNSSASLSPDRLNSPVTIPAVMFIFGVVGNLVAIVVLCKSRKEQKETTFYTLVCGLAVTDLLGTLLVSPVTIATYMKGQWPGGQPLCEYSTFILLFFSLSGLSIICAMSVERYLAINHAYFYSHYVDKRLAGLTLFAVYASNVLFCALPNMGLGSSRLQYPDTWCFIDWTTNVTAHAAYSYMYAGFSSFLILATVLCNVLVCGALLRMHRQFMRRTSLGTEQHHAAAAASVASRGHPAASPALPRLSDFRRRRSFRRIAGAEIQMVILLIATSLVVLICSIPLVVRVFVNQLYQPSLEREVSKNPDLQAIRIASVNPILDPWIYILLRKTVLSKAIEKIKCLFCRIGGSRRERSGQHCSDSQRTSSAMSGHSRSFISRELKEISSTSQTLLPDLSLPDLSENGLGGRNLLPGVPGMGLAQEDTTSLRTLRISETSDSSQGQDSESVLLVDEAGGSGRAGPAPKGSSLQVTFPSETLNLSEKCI
Chain of Prostaglandin F2-alpha receptor (P43088 whole entry): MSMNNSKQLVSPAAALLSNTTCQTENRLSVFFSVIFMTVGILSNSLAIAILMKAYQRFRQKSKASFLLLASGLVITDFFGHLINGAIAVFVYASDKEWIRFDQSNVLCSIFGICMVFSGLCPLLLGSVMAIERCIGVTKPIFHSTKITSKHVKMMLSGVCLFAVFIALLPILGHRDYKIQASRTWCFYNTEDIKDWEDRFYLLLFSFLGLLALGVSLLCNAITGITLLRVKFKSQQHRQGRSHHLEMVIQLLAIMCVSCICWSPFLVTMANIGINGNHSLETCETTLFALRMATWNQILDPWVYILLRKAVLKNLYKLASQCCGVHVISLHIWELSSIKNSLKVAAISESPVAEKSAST

Compound `O=C(O)COc1cccc2c1OCCN2CCN(C(=O)c1ccccn1)c1ccc(Cl)cc1` had a bioavailability in series [1] of 13%. For the same compound, the peak level in series [2] (Cmax) was 138 ng/mL.

With `Cc1ccc(N(CCN2CCC(OCC(=O)O)CC2)C(=O)c2ccccc2)cc1`, the Ki in series [3] is greater than 50 µM; in series [4], greater than 50 µM; on Thromboxane A2 receptor, greater than 50 µM; in [5], greater than 50 µM; in series [6] it was greater than 50 µM; at Prostacyclin receptor, 990 nM. This compound yielded a Ki in [7] greater than 50 µM. Also, the bioavailability in series [1] stood at 77%. In addition, the concentration in [2] peaked (Cmax) at 1610 ng/mL.
